Data on 24 substances can be found in the OligoGym collection.

HELM strings list units from the 5' end as sugar, base in round brackets, then linkage (d deoxyribose, r ribose, m 2'-O-methyl, p phosphodiester). Strings are as the collection lists them; they lack the last nucleoside at the 3' end of the tested compound. [moe] = 2'-O-(2-methoxyethyl) (MOE); [sp] = phosphorothioate linkage; [m5C] = 5-methylcytosine

The series concerns the target APP. Description: mouse, dose not given. As to conditions: ASO.

With “RNA1{[moe](T)[sp].[moe]([m5C])p.[moe](A)p.[moe](T)p.[moe](T)[sp].d([m5C])[sp].d(T)[sp].d([m5C])[sp].d(A)[sp].d(T)[sp].d([m5C])[sp].d([m5C])[sp].d([m5C])[sp].d([m5C])[sp].d(A)[sp].[moe](G)p.[moe](G)p.[moe](T)[sp].[moe](G)}$$$$ (last 3' nucleoside missing)”, the 3 h FOB score was 0 score 0-7.

For the substance “RNA1{[moe](T)[sp].[moe]([m5C])p.[moe](A)p.[moe](T)p.[moe]([m5C])[sp].d(A)[sp].d(A)[sp].d([m5C])[sp].d(T)[sp].d(T)[sp].d(T)[sp].d(T)[sp].d(T)[sp].d(A)[sp].d(G)[sp].[moe](T)p.[moe]([m5C])p.[moe]([m5C])[sp].[moe](T)}$$$$ (last 3' nucleoside missing)”, the 3 h FOB score came to 0.67 score 0-7. “RNA1{[moe](T)[sp].[moe]([m5C])p.[moe](A)p.[moe](T)p.[moe]([m5C])[sp].d(A)[sp].d([m5C])[sp].d([m5C])[sp].d(A)[sp].d(T)[sp].d(A)[sp].d([m5C])[sp].d(A)[sp].d(T)[sp].d(A)[sp].[moe](G)p.[moe]([m5C])p.[moe](A)[sp].[moe](G)}$$$$ (last 3' nucleoside missing)”: the 3 h FOB score was 0.67 score 0-7. Consider “RNA1{[moe](T)[sp].[moe]([m5C])p.[moe](A)p.[moe]([m5C])p.[moe](A)[sp].d(G)[sp].d(T)[sp].d(T)[sp].d(T)[sp].d(A)[sp].d([m5C])[sp].d([m5C])[sp].d([m5C])[sp].d([m5C])[sp].d(A)[sp].[moe](A)p.[moe](G)p.[moe]([m5C])[sp].[moe](T)}$$$$ (last 3' nucleoside missing)”, for which the 3 h FOB score is 0 score 0-7.

“RNA1{[moe](T)[sp].[moe]([m5C])p.[moe](G)p.[moe](G)p.[moe](A)[sp].d([m5C])[sp].d(T)[sp].d(T)[sp].d(A)[sp].d([m5C])[sp].d(T)[sp].d(G)[sp].d(T)[sp].d(A)[sp].d(A)[sp].[moe](T)p.[moe](G)p.[moe](G)[sp].[moe](G)}$$$$ (last 3' nucleoside missing)” came in with a 3 h FOB score of 1.25 score 0-7. With “RNA1{[moe](T)[sp].[moe]([m5C])p.[moe](T)p.[moe](G)p.[moe](A)[sp].d(T)[sp].d(A)[sp].d(T)[sp].d(T)[sp].d([m5C])[sp].d(A)[sp].d([m5C])[sp].d(T)[sp].d(T)[sp].d(A)[sp].[moe](T)p.[moe]([m5C])p.[moe](T)[sp].[moe](G)}$$$$ (last 3' nucleoside missing)” the figure was 0 score 0-7. As for “RNA1{[moe](T)[sp].[moe]([m5C])p.[moe](T)p.[moe](G)p.[moe](T)[sp].d(A)[sp].d(T)[sp].d(T)[sp].d(A)[sp].d(T)[sp].d(A)[sp].d([m5C])[sp].d(T)[sp].d([m5C])[sp].d(T)[sp].[moe](G)p.[moe](G)p.[moe](G)[sp].[moe]([m5C])}$$$$ (last 3' nucleoside missing)”, the figure is 2.5 score 0-7.

“RNA1{[moe](T)[sp].[moe]([m5C])p.[moe](T)p.[moe](T)p.[moe](G)[sp].d(A)[sp].d(T)[sp].d(A)[sp].d(T)[sp].d(T)[sp].d(T)[sp].d(G)[sp].d(T)[sp].d([m5C])[sp].d(A)[sp].[moe](A)p.[moe]([m5C])p.[moe]([m5C])[sp].[moe]([m5C])}$$$$ (last 3' nucleoside missing)” had a 3 h FOB score of 5 score 0-7. With “RNA1{[moe](T)[sp].[moe]([m5C])p.[moe](T)p.[moe](T)p.[moe]([m5C])[sp].d(A)[sp].d(A)[sp].d([m5C])[sp].d(T)[sp].d(T)[sp].d(A)[sp].d(G)[sp].d(T)[sp].d([m5C])[sp].d(A)[sp].[moe](T)p.[moe]([m5C])p.[moe]([m5C])[sp].[moe](T)}$$$$ (last 3' nucleoside missing)” the figure was 0 score 0-7; with “RNA1{[moe](T)[sp].[moe]([m5C])p.[moe](T)p.[moe](T)p.[moe]([m5C])[sp].d(A)[sp].d([m5C])[sp].d(T)[sp].d([m5C])[sp].d([m5C])[sp].d([m5C])[sp].d(A)[sp].d(T)[sp].d([m5C])[sp].d(T)[sp].[moe](G)p.[moe]([m5C])p.[moe](A)[sp].[moe](T)}$$$$ (last 3' nucleoside missing)”, 1 score 0-7. With “RNA1{[moe](T)[sp].[moe]([m5C])p.[moe](T)p.[moe](T)p.[moe]([m5C])[sp].d(T)[sp].d(T)[sp].d([m5C])[sp].d([m5C])[sp].d(A)[sp].d([m5C])[sp].d([m5C])[sp].d(T)[sp].d([m5C])[sp].d(A)[sp].[moe](G)p.[moe]([m5C])p.[moe]([m5C])[sp].[moe](A)}$$$$ (last 3' nucleoside missing)”, the 3 h FOB score worked out at 0.5 score 0-7. As for “RNA1{[moe](T)[sp].[moe]([m5C])p.[moe](T)p.[moe](T)p.[moe]([m5C])[sp].d([m5C])[sp].d([m5C])[sp].d(A)[sp].d([m5C])[sp].d(A)[sp].d(T)[sp].d(T)[sp].d(A)[sp].d(T)[sp].d(T)[sp].[moe]([m5C])p.[moe](T)p.[moe](A)[sp].[moe](T)}$$$$ (last 3' nucleoside missing)”, the figure is 0 score 0-7. Substance “RNA1{[moe](T)[sp].[moe]([m5C])p.[moe](T)p.[moe]([m5C])p.[moe](A)[sp].d(T)[sp].d(A)[sp].d(G)[sp].d(T)[sp].d([m5C])[sp].d(T)[sp].d(T)[sp].d(A)[sp].d(A)[sp].d(T)[sp].[moe](T)p.[moe]([m5C])p.[moe]([m5C])[sp].[moe]([m5C])}$$$$ (last 3' nucleoside missing)” returned a 3 h FOB score of 0 score 0-7. On to “RNA1{[moe](T)[sp].[moe]([m5C])p.[moe](T)p.[moe]([m5C])p.[moe](T)[sp].d([m5C])[sp].d(A)[sp].d(T)[sp].d(A)[sp].d(G)[sp].d(T)[sp].d([m5C])[sp].d(T)[sp].d(T)[sp].d(A)[sp].[moe](A)p.[moe](T)p.[moe](T)[sp].[moe]([m5C])}$$$$ (last 3' nucleoside missing)”, for which the 3 h FOB score was 0 score 0-7.

Substance “RNA1{[moe](T)[sp].[moe]([m5C])p.[moe](T)p.[moe]([m5C])p.[moe]([m5C])[sp].d(A)[sp].d(A)[sp].d(T)[sp].d(T)[sp].d(T)[sp].d(T)[sp].d(A)[sp].d(A)[sp].d([m5C])[sp].d(T)[sp].[moe](T)p.[moe](G)p.[moe]([m5C])[sp].[moe](A)}$$$$ (last 3' nucleoside missing)” returned a 3 h FOB score of 0 score 0-7. In turn, “RNA1{[moe](T)[sp].[moe]([m5C])p.[moe]([m5C])p.[moe](A)p.[moe](A)[sp].d(A)[sp].d(G)[sp].d(A)[sp].d(T)[sp].d(T)[sp].d([m5C])[sp].d([m5C])[sp].d(A)[sp].d([m5C])[sp].d(T)[sp].[moe](T)p.[moe](T)p.[moe]([m5C])[sp].[moe](T)}$$$$ (last 3' nucleoside missing)” had a 3 h FOB score of 0.5 score 0-7. As for “RNA1{[moe](T)[sp].[moe]([m5C])p.[moe]([m5C])p.[moe](A)p.[moe](A)[sp].d(T)[sp].d(T)[sp].d(T)[sp].d(T)[sp].d(A)[sp].d(A)[sp].d([m5C])[sp].d(T)[sp].d(T)[sp].d(G)[sp].[moe]([m5C])p.[moe](A)p.[moe]([m5C])[sp].[moe]([m5C])}$$$$ (last 3' nucleoside missing)”, the figure is 0.5 score 0-7; as for “RNA1{[moe](T)[sp].[moe]([m5C])p.[moe]([m5C])p.[moe](A)p.[moe](T)[sp].d([m5C])[sp].d(T)[sp].d(T)[sp].d([m5C])[sp].d(A)[sp].d([m5C])[sp].d(T)[sp].d(T)[sp].d([m5C])[sp].d(A)[sp].[moe](G)p.[moe](A)p.[moe](G)[sp].[moe](A)}$$$$ (last 3' nucleoside missing)”, 0.5 score 0-7; as for “RNA1{[moe](T)[sp].[moe]([m5C])p.[moe]([m5C])p.[moe](G)p.[moe](A)[sp].d(G)[sp].d(T)[sp].d([m5C])[sp].d(A)[sp].d(T)[sp].d([m5C])[sp].d([m5C])[sp].d(T)[sp].d([m5C])[sp].d([m5C])[sp].[moe](T)p.[moe]([m5C])p.[moe]([m5C])[sp].[moe](G)}$$$$ (last 3' nucleoside missing)”, 1 score 0-7. “RNA1{[moe](T)[sp].[moe]([m5C])p.[moe]([m5C])p.[moe]([m5C])p.[moe](A)[sp].d(T)[sp].d(A)[sp].d([m5C])[sp].d(A)[sp].d(T)[sp].d(G)[sp].d(A)[sp].d(T)[sp].d(T)[sp].d(T)[sp].[moe](T)p.[moe](A)p.[moe](G)[sp].[moe](G)}$$$$ (last 3' nucleoside missing)” displayed a 3 h FOB score of 1.25 score 0-7. As for “RNA1{[moe]([m5C])[sp].[moe](A)[sp].[moe](T)p.[moe]([m5C])p.[moe](A)[sp].d([m5C])[sp].d(T)[sp].d(T)[sp].d(A)[sp].d([m5C])[sp].d(A)[sp].d(A)[sp].d(A)[sp].d([m5C])[sp].d(T)[sp].[moe]([m5C])p.[moe](A)p.[moe]([m5C])[sp].[moe]([m5C])}$$$$ (last 3' nucleoside missing)”, the figure is 0 score 0-7; as for “RNA1{[moe]([m5C])[sp].[moe](A)p.[moe](A)p.[moe](A)p.[moe](G)[sp].d(A)[sp].d(T)[sp].d(T)[sp].d([m5C])[sp].d([m5C])[sp].d(A)[sp].d([m5C])[sp].d(T)[sp].d(T)[sp].d(T)[sp].[moe]([m5C])p.[moe](T)p.[moe]([m5C])[sp].[moe]([m5C])}$$$$ (last 3' nucleoside missing)”, 7 score 0-7.

For the substance “RNA1{[moe]([m5C])[sp].[moe](A)p.[moe](G)p.[moe]([m5C])p.[moe]([m5C])[sp].d([m5C])[sp].d([m5C])[sp].d(A)[sp].d(A)[sp].d(A)[sp].d(A)[sp].d(G)[sp].d(A)[sp].d(A)[sp].d(T)[sp].[moe](G)p.[moe]([m5C])p.[moe]([m5C])[sp].[moe](A)}$$$$ (last 3' nucleoside missing)”, the 3 h FOB score came out at 0.5 score 0-7. As for “RNA1{[moe]([m5C])[sp].[moe](A)p.[moe](T)p.[moe](G)p.[moe](A)[sp].d(G)[sp].d(T)[sp].d([m5C])[sp].d([m5C])[sp].d(A)[sp].d(A)[sp].d(T)[sp].d(G)[sp].d(A)[sp].d(T)[sp].[moe](T)p.[moe](G)p.[moe]([m5C])[sp].[moe](A)}$$$$ (last 3' nucleoside missing)”, the figure is 5.5 score 0-7.
